Values quoted from earlier work, collected in patent US20190167675A1, “METHODS AND COMPOSITIONS FOR APPETITE CONTROL AND WEIGHT MANAGEMENT” (SHANGHAI YAO YUAN BIOTECHNOLOGY CO., LTD., priority 2016, published 2019).
Like-named read-outs stand apart in the source and are kept apart here.

Key:
ASIC3 [1] = target: T1, ASIC3 (Homo sapiens, UniProt Q9UHC3); conditions: cited from earlier work
T1 sequence (Q9UHC3 1-531): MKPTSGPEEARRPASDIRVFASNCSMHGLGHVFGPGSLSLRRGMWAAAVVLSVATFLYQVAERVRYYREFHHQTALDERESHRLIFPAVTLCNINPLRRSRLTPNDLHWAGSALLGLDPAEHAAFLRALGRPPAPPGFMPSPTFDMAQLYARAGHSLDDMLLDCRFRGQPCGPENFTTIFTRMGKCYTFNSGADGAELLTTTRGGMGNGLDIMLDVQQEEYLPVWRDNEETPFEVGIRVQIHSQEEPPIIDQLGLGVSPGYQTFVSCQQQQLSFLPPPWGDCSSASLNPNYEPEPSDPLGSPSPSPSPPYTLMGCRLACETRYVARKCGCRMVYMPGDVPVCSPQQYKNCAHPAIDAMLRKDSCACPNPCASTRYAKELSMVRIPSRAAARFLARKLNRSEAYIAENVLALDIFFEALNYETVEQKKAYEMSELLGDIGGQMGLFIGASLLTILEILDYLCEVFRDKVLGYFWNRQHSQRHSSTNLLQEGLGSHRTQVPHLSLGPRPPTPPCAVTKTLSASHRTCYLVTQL

ASIC3 [2] = conditions: in vivo; cited from earlier work
ENaC [3] = target: T2, ENaC (Rattus norvegicus, UniProt P37089+P37090+P37091); conditions: rat AEC type II cells; cited from earlier work
T2 construct: amiloride-sensitive Na+ currents (via ENaC) in rat, dog, and pig AEC type II cells; endogenous in cells; host or cells: rat AEC type II cells
T2 sequence (P37089 1-698): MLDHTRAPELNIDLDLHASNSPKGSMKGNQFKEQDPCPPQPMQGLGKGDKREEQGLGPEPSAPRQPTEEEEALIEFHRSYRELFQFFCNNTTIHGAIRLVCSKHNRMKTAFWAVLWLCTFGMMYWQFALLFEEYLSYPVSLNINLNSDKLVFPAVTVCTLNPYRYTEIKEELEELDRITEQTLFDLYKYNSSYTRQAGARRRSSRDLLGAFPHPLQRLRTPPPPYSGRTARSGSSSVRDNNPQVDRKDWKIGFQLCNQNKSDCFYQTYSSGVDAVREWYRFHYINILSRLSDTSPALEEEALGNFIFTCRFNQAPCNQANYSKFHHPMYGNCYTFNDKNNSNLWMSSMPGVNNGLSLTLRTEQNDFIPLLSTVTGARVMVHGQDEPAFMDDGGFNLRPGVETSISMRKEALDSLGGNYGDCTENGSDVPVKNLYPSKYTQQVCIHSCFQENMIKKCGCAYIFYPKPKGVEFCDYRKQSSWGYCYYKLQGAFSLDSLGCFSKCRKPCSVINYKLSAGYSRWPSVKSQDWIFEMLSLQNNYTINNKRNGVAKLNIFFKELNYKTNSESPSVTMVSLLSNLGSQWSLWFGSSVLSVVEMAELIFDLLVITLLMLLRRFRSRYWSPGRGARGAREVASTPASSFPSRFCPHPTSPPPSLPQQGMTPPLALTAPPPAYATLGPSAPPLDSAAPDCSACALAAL
T2 sequence (P37090 1-638): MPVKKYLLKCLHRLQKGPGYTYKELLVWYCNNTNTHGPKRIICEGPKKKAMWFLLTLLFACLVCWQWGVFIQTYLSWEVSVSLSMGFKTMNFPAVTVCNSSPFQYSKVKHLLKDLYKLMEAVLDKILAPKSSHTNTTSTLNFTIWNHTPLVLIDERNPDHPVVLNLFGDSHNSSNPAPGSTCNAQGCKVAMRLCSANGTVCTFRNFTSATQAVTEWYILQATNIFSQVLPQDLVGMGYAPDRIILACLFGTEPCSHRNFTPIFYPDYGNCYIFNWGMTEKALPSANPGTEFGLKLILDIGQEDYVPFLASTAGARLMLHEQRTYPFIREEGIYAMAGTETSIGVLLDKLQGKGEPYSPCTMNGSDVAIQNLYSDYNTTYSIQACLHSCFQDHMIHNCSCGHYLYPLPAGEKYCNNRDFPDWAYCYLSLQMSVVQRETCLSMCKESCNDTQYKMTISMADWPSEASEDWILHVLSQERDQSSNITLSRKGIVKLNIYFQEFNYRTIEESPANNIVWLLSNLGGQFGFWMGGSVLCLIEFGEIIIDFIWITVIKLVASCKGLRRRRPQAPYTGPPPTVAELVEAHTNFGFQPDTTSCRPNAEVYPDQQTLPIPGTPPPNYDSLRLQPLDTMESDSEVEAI
T2 sequence (P37091 1-650): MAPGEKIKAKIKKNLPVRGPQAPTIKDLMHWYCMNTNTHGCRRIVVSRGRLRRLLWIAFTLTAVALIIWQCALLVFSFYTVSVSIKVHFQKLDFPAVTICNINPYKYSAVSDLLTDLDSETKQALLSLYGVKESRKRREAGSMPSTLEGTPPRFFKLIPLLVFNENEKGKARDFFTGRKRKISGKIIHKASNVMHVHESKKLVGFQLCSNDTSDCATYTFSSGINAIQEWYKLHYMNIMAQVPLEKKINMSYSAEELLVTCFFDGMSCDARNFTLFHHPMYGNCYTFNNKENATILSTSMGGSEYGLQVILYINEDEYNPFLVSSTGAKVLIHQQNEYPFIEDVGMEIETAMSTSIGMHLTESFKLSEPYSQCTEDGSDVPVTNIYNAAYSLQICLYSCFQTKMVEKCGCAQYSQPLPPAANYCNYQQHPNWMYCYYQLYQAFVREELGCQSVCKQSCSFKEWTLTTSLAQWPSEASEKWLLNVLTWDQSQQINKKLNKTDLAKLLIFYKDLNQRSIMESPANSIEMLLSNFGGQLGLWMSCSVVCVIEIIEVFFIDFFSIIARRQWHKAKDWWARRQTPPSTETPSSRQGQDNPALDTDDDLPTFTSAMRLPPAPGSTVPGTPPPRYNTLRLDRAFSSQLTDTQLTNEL

ENaC [4] = conditions: dog AEC type II cells; cited from earlier work
ENaC [5] = conditions: pig AEC type II cells; cited from earlier work

Compound	ASIC3 currents (ASIC3 [1])	pain related behavior (ASIC3 [2])	increase of amiloride-sensitive Na+ currents versus baseline (ENaC [3])	increase of amiloride-sensitive Na+ currents versus baseline (ENaC [4])	increase of amiloride-sensitive Na+ currents versus baseline (ENaC [5])
Cc1nc(NC(=N)N)nc2ccccc12 [GMQ, 2-guanidine-4-methylquinazoline]	induces persistent ASIC3 currents	induces pain related behavior	–	–	–
AP301: ENaC activator; human TNF-α-derived cyclic peptide composed of 17 natural amino acids	–	–	about 9 fold	~13 fold	~16 fold
